In patent US20090023646A1, “GHRH analogues” (Centre Hospitalier de L'Universite de Montreal (CHUM), priority 2002, published 2009):
Square brackets hold non-standard residues; d marks the D form. Peptide text beside a SMILES is read from it.

Test system: adult female rats
Assay: In vivo GH secretion after single IV or SC injection in female rats
Design: species or system rat
Description: The ability of human GHRH analogue #5 (human [D-Ala^2, D-Tyr^10, D-Ala^15, Lys^22] GHRH (1-29)NH2 analogue) to stimulate GH secretion was studied in adult female rats (26-34 weeks at onset of treatment) and in a male Beagle dog.
Human GHRH analogue #5 in 0.9% sodium chloride for injection USP was administered once either by intravenous (IV) or subcutaneous (SC) injection to female rats followed by a 14-day observation period, as shown in Table 2. Prior to administration, all dosing formulations were filtered using a 0.22 μm filter to ensure sterility. The actual amount of GHRH analogue #5 administered was calculated and adjusted based on the animal's most recent body weight. Dosing started at approximately the same time each day, commencing at 9:00 am±30 minutes.
For pharmacodynamic investigations, blood samples (approximately 1.3 ml) were collected from 2 animals per group per time point (maximum 3 time points/animal) via a jugular venipuncture at the following time points: pre-dose, 4, 10, 15, 45 minutes and 5 hours post dosing. […]
Plasma GH was determined by Linco Diagnostic Services using their own kit.
Linco's Rat Growth Hormone radioimmunoassay kit (RIA) (RGH-45HK) is intended for the quantitative determination of Rat Growth Hormone in serum, plasma, and tissue culture media. […]

For `CC[C@H](C)[C@H](NC(=O)[C@H](C)NC(=O)[C@H](CC(=O)O)NC(=O)[C@@H](C)NC(=O)[C@@H](N)Cc1ccc(O)cc1)C(=O)N[C@@H](Cc1ccccc1)C(=O)N[C@H](C(=O)N[C@@H](CC(N)=O)C(=O)N[C@@H](CO)C(=O)N[C@H](Cc1ccc(O)cc1)C(=O)N[C@@H](CCCNC(=N)N)C(=O)N[C@@H](CCCCN)C(=O)N[C@H](C(=O)N[C@@H](CC(C)C)C(=O)N[C@H](C)C(=O)N[C@@H](CCC(N)=O)C(=O)N[C@@H](CC(C)C)C(=O)N[C@@H](CO)C(=O)N[C@@H](C)C(=O)N[C@@H](CCCNC(=N)N)C(=O)N[C@@H](CCCCN)C(=O)N[C@@H](CCCCN)C(=O)N[C@@H](CC(C)C)C(=O)N[C@@H](CCC(N)=O)C(=O)N[C@@H](CC(=O)O)C(=O)N[C@H](C(=O)N[C@@H](CCSC)C(=O)N[C@@H](CO)C(=O)N[C@@H](CCCNC(=N)N)C(N)=O)[C@@H](C)CC)C(C)C)[C@@H](C)O` [GHRH analogue #5, [D-Ala^2, D-Tyr^10, D-Ala^15, Lys^22] hGHRH(1-29)-NH2] (H-Y[dA]DAIFTNS[dY]RKVL[dA]QLSARKKLQDIMSR-NH2), the “in vivo potency compared with the natural 44 amino acid GHRH” value (in vivo, conclusion) was “at least two times more potent” and the “GH secretion compared with response to natural hGHRH(1-44)NH2” value (rat, pulse amplitude and AUC) was “twice larger”.
